Experiments:
Type in all cases: functional
Details in all cases: read-out: ED50 (the source's name)
KB = test: Cytotoxicity against human KB cells by SRB assay
NCI-H187 = test: Cytotoxicity against human NCI-H187 cells by SRB assay
[1] = Cytotoxicity against human BC cells by SRB assay

## C[C@@H]1C(=O)O[C@@H](C(C)(C)O)c2nc(cs2)C(=O)OC(C)(C)[C@H](O)c2nc(cs2)C(=O)O[C@H]1CCCC(C)(Cl)Cl [DEACETYLHECTOCHLORIN]
KB
  EC50: 0.31 µM
NCI-H187
  EC50: 0.32 µM
[1]
  EC50: 1.03 µM

## CC(=O)O[C@@H]1c2nc(cs2)C(=O)O[C@@H](CCCC(C)(Cl)Cl)[C@H](C)C(=O)O[C@@H](C(C)(C)O)c2nc(cs2)C(=O)OC1(C)C [HECTOCHLORIN]
KB
  EC50: 0.86 µM
NCI-H187
  EC50: 1.2 µM
